The values below are quoted from earlier work in paper PMC9889658, “The structure of MadC from Clostridium maddingley reveals new insights into class I lanthipeptide cyclases” (Frontiers in Microbiology, 2023).

The target in the data set is NisB. Conditions: dependent on maturation state; ref Mavaro et al., 2011; read-out: binding affinity. The text has this: This implies a higher relevance of the LP comp ...

“MSTKDFNLDLVSVSKKDSGASPRITSISLCTPGCKTGALMGCNMKTATCHCSIHVSK [unmodified prenisin, unmodified nisin precursor peptide]”: the Kd is 1000 nM.
